Assay results from PubChem BioAssay (NCI).
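Step 1: Grow cells in 96-well plates. Step 2: Expose to compound for 48 hours at 5 concentrations. Step 3: Interpolate endpoints linearly; if unreached, use highest concentration. TGI denotes the concentration required for complete inhibition of growth.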

Legend:
Experiment in all cases: NCI-60 cell line screen, 48 h
RPMI-8226 leukemia = system: RPMI-8226 leukemia
ACHN renal = system: ACHN renal
HCC-2998 colon = system: HCC-2998 colon
NCI-H522 lung = system: NCI-H522 lung
A549 NSCLC = system: A549 NSCLC
SF-295 CNS = system: SF-295 CNS
SR leukemia = system: SR leukemia
PC-3 prostate = system: PC-3 prostate
MOLT-4 leukemia = system: MOLT-4 leukemia
HCT-15 colon = system: HCT-15 colon
MCF7 breast = system: MCF7 breast
SK-MEL-28 melanoma = system: SK-MEL-28 melanoma
DU-145 prostate = system: DU-145 prostate
U251 CNS = system: U251 CNS
COLO 205 colon = system: COLO 205 colon
CAKI-1 renal = system: CAKI-1 renal

Row | Structure (SMILES) | TGI (RPMI-8226 leukemia) | TGI (ACHN renal) | TGI (HCC-2998 colon) | TGI (NCI-H522 lung) | TGI (A549 NSCLC) | TGI (SF-295 CNS) | TGI (SR leukemia) | TGI (PC-3 prostate) | TGI (MOLT-4 leukemia) | TGI (HCT-15 colon) | TGI (MCF7 breast) | TGI (SK-MEL-28 melanoma) | TGI (DU-145 prostate) | TGI (U251 CNS) | TGI (COLO 205 colon) | TGI (CAKI-1 renal)
1 | Cc1nn(C)c2c1C(=O)N(C)CC(=O)N2C | > 100 µM | > 100 µM | > 100 µM | > 100 µM | > 100 µM | > 100 µM | > 100 µM | > 100 µM | > 100 µM | > 100 µM | > 100 µM | > 100 µM | > 100 µM | > 100 µM | > 100 µM | > 100 µM
2 | Cc1cc(-c2nc3cc(F)c(F)cc3s2)ccc1N | > 100 µM | > 100 µM | > 100 µM | > 100 µM | > 100 µM | > 82.9 µM | > 100 µM | > 100 µM | > 100 µM | > 100 µM | > 100 µM | > 100 µM | > 100 µM | > 100 µM | > 100 µM | > 100 µM
